Our source for the MIC values is patent publication US8318940B2, “Naphthyridin-2 (1 H)-one compounds useful as antibacterials” (Glaxo Group Limited, priority 2009, dated 2012).

By MIC is commonly meant the least concentration at which growth counts as inhibited. Low readings indicate inhibition by little substance, high ones a need for much substance.

For this assay, the system named is Mycobacterium tuberculosis H37Rv. As to the kind of experiment: Mycobacterium tuberculosis H37Rv inhibition assay (MIC, resazurin). Particulars: ATCC 25618 / H37Rv, H37Rv strain (ATCC25618), Middlebrook 7H9, 37° C. six days, resazurin fluorescence after 48 hours. Type of assay: cell-based.

For `COc1cnc2ccc(=O)n(CCN3CCC(NCc4cnc(CO)c(Cl)c4)CC3)c2c1` [Example 5, 1-{2-[4-({[5-chloro-6-(hydroxymethyl)-3-pyridinyl]methyl}amino)-1-piperidinyl]ethyl}-7-(methyloxy)-1,5-naphthyridin-2(1H)-one], the MIC was at most 0.3 mg/L. `O=c1ccc2ncc(F)cc2n1CCN1CCC(NCc2cnc(CO)c(Br)c2)CC1` [Example 6, 1-{2-[4-({[5-bromo-6-(hydroxymethyl)-3-pyridinyl]methyl}amino)-1-piperidinyl]ethyl}-7-fluoro-1,5-naphthyridin-2(1H)-one] had an MIC of at most 0.3 mg/L. Take `O=c1ccc2ncc(F)cc2n1CCN1CC[C@H](NCc2cnc(CO)c(Cl)c2)[C@H](O)C1` [Example 3, 1-{2-[(3R,4S)-4-({[5-chloro-6-(hydroxymethyl)-3-pyridinyl]methyl}amino)-3-hydroxy-1-piperidinyl]ethyl}-7-fluoro-1,5-naphthyridin-2(1H)-one]: the MIC is at most 0.3 mg/L.

`Cl.O=c1ccc2ncc(F)cc2n1CCN1CC[C@H](NCc2cnc(CO)c(Cl)c2)[C@H](O)C1` [Example 4, 1-{2-[(3R,4S)-4-({[5-chloro-6-(hydroxymethyl)-3-pyridinyl]methyl}amino)-3-hydroxy-1-piperidinyl]ethyl}-7-fluoro-1,5-naphthyridin-2(1H)-one hydrochloride] came in with an MIC of at most 0.3 mg/L. Molecule `O=c1ccc2ncc(F)cc2n1CCN1CCC(NCc2cnc(CO)c(Cl)c2)CC1` [Example 1, 1-{2-[4-({[5-chloro-6-(hydroxymethyl)-3-pyridinyl]methyl}amino)-1-piperidinyl]ethyl}-7-fluoro-1,5-naphthyridin-2(1H)-one] returned an MIC of at most 0.3 mg/L. Molecule `Cl.O=c1ccc2ncc(F)cc2n1CCN1CCC(NCc2cnc(CO)c(Cl)c2)CC1` [Example 2, 1-{2-[4-({[5-chloro-6-(hydroxymethyl)-3-pyridinyl]methyl}amino)-1-piperidinyl]ethyl}-7-fluoro-1,5-naphthyridin-2(1H)-one hydrochloride] showed a minimal inhibitory concentration (MIC) of at most 0.3 mg/L.
